For experiment [1], the target named is LSD1 (Homo sapiens (Human), UniProt O60341). Kind of experiment: LSD1 enzyme activity detection (HTRF). The conditions noted are these: read-out: Inhibition of enzymatic activity of LSD1 IC50. The experiment is classed as biochemical. In general terms: TR-FRET usually uses a lanthanide donor and a delayed reading to cut background.
Experiment [2] has as its system NCI-H1417 cells. Put plainly: In vitro cell proliferation detection (CellTiter-Glo, 7 days). The conditions noted are these: Homo sapiens, 168 h; NCI-H1417 cells, 7 days, CellTiter-Glo; read-out: NCI-H1417 proliferation inhibition IC50. The experiment is classed as cell-based. (In ATP-based viability assays light output follows the ATP content of the culture.)

Structures can show the parent of a compound that is named as a salt. Where two headings read alike, the source gives them in different places.

As for `N#Cc1ccc(-c2nc(N3CCC(N)CC3)cc(O)c2-c2cc(O)c(F)c(F)c2)cc1F` [Example 46, 4-(6-(4-aminopiperidin-1-yl)-3-(3,4-difluoro-5-hydroxyphenyl)-4-hydroxypyridin-2-yl)-2-fluorobenzonitrile], the IC50 in experiment [1] (HTRF, H3K4me1 substrate) was 2 ± 1.4 nM; in experiment [2] it was 96.4 nM.

Take `Cc1noc2cc(-c3sc(C(=O)N4C5CCC4CC(N)C5)cc3-c3ccncc3)c(F)cc12` (stereo not drawn) [Example 204, (3-amino-8-azabicyclo [3.2.1]octane-8-yl) (5-(5-fluoro-3-methylbenzo [d]isoxazol-6-yl)-4-(pyridin-4-yl)thiophen-2-yl)methanone hydrochloride]: the IC50 in experiment [1] (HTRF, H3K4me1 substrate) came to 12.2 ± 7.3 nM; in experiment [2], 118 nM.

On to `N#CCn1ncc2cc(F)c(-c3sc(C(=O)N4C5CCC4CC(N)C5)nc3-c3ccc(C#N)c(F)c3)cc21` (stereo not drawn) [Example 221, 4-(2-(3-amino-8-azabicyclo[3.2.1]octan-8-carbonyl)-5-(1-(cyanomethyl)-5-fluoro-1H-indazol-6-yl)thiazol-4-yl)-2-fluorobenzonitrile hydrochloride], for which the IC50 in experiment [1] (HTRF, H3K4me1 substrate) was determined as 10 ± 3.2 nM; in experiment [2], 29.8 nM.

On to `N#Cc1ccc(-c2cc(C(=O)N3C4CCC3CC(N)C4)sc2-c2cc3[nH]nnc3cc2F)cc1F` (stereo not drawn) [Example 216, 4-(5-(3-amino-8-azabicyclo [3.2.1]octan-8-carbonyl)-2-(5-fluoro-1H-benzo [d][1,2,3]triazol-6-yl)thio-phen-3-yl)-2-fluorobenzo-nitrile hydrochloride], for which the IC50 in experiment [1] (HTRF, H3K4me1 substrate) stood at 8.14 ± 1.84 nM; in experiment [2], 20.9 nM.

In the case of `COc1ccc(-c2c(O)cc(N3CCC(NCC(C)(C)O)CC3)nc2-c2ccc(C#N)c(F)c2)cc1F` [Example 45, 2-fluoro-4-(3-(3-fluoro-4-methoxyphenyl)-4-hydroxy-6-(4-((2-hydroxy-2-methylpropyl)amino)piperidin-1-yl)pyridin-2-yl)benzonitrile hydrochloride], the IC50 in experiment [1] (HTRF, H3K4me1 substrate) came to 184 nM; in experiment [2] it was 160 nM.

`Cc1noc2cc(-c3c(-c4ccc(C#N)c(F)c4)nc(N4CCC(N)CC4)c4nc[nH]c34)c(F)cc12` [Example 272, 4-(4-(4-aminopiperidin-1-yl)-7-(5-fluoro-3-methylbenzo[d]isoxazol-6-yl)-1H-imidazolo[4,5-c]pyridin-6-yl)-2-fluorobenzonitrile]: the IC50 worked out at 1.8 ± 0.8 nM in experiment [1] (HTRF, H3K4me1 substrate) and 11 nM in experiment [2].

Take `COc1cc(N2CCC(N)CC2)nc(-c2ccc(C#N)c(F)c2)c1-c1ccc(C#N)c(F)c1` [Example 94, 4,4′-(6-(4-aminopiperidin-1-yl)-4-methoxypyridin-2,3-diyl)bis(2-fluorobenzonitrile)]: the IC50 was 24.9 nM in experiment [1] (HTRF, H3K4me1 substrate) and 104 nM in experiment [2].

Turning to `COc1ccc(-c2c(O)cc(N(C)CCCN)nc2-c2ccc(C#N)c(F)c2)cc1O` [Example 62], the IC50 worked out at 21 nM in experiment [1] (HTRF, H3K4me1 substrate) and 224 nM in experiment [2].

For the compound `COc1ccc(-c2c(-c3ccc(C#N)c(O)c3)nc(N3C4CCC3CC(N)C4)n3ccnc23)cc1F` (stereo not drawn) [Example 185, 4-(5-(3-amino-8-azabicyclo[3.2.1]octane-8-yl)-8-(3-fluoro-4-methoxyphenyl)imidazolo[1,2-c]pyrimidin-7-yl)-2-hydroxybenzonitrile], the IC50 in experiment [1] (HTRF, H3K4me1 substrate) worked out at 14.1 nM; in experiment [2], 160 nM.

In the case of `COc1ccc(C#Cc2c(-c3ccc(C#N)c(F)c3)nc(N3CCC(N)CC3)n3ccnc23)cc1F` [Example 122, 4-(5-(4-aminopiperidin-1-yl)-8-(3-fluoro-4-methoxyphenyl)ethynyl)imidazolo [1,2-c]pyrimidin-7-yl)-2-fluorobenzonitrile hydrochloride], the IC50 in experiment [1] (HTRF, H3K4me1 substrate) turned out to be 8.68 ± 0.76 nM; in experiment [2] it was 30.2 nM.

Turning to `COc1ccc(-c2c(O)cc(N3CCC(N)CC3)nc2-c2ccc(C#N)c(F)c2)cc1C#N` [Example 47, 4-(6-(4-aminopiperidin-1-yl)-3-(3-cyano-4-methoxyphenyl)-4-hydroxypyridin-2-yl)-2-fluorobenzonitrile], the IC50 was determined as 2.6 ± 1.3 nM in experiment [1] (HTRF, H3K4me1 substrate) and 106 nM in experiment [2].

With `COc1ccc(-c2cnc(N3CCC(N)CC3)c(C#N)c2-c2ccc(C#N)c(F)c2)cc1F` [Example 68, 2-(4-aminopiperidin-1-yl)-4-(4-cyano-3-fluorophenyl)-5-(3-fluoro-4-methoxyphenyl) nicotinonitrile hydrochloride], the IC50 in experiment [1] (HTRF, H3K4me1 substrate) is 3.4 ± 1.3 nM; in experiment [2], 6.92 nM.

As to `COc1cc(N2CCC(N)CC2)nc(-c2ccc(C#N)c(F)c2)c1-c1ccc(C(F)(F)F)c(O)c1` [Example 99, 4-(6-(4-aminopiperidin-1-yl)-3-(3-hydroxy-4-(trifluoromethyl)phenyl)-4-methoxypyridin-2-yl)-2-fluorobenzonitrile hydrochloride], the IC50 came out at 4.9 ± 1.2 nM in experiment [1] (HTRF, H3K4me1 substrate) and 1.72 nM in experiment [2].

For `N#Cc1ccc(-c2nc(N3C4CCC3CC(N)C4)n3ccnc3c2-c2ccc(Cl)c(O)c2)cc1F` (stereo not drawn) [Example 158, 4-(5-(3-amino-8-azabicyclo[3.2.1]octane-8-yl)-8-(4-chloro-3-hydroxyphenyl)imidazolo[1,2-c]pyrimidin-7-yl)-2-fluorobenzonitrile hydrochloride], the IC50 in experiment [1] (HTRF, H3K4me1 substrate) worked out at 0.2 ± 0.2 nM; in experiment [2], 0.763 nM.

`COCCNC1CCN(c2cc(O)c(-c3ccc(OC)c(F)c3)c(-c3ccc(C#N)c(F)c3)n2)CC1` [Example 49, 2-fluoro-4-(3-(3-fluoro-4-methoxyphenyl)-4-hydroxy-6-(4-((2-methoxyethyl)amino)piperidin-1-yl)pyridin-2-yl)benzonitrile]: the IC50 in experiment [1] (HTRF, H3K4me1 substrate) worked out at 61.4 nM; in experiment [2], 228 nM.

As for `CC(C)(O)COc1ccc(-c2cnc(N3CCC(N)CC3)c(C#N)c2-c2ccc(C#N)c(F)c2)cc1O` [Example 86, hydrochloride], the IC50 in experiment [1] (HTRF, H3K4me1 substrate) amounted to 0.147 nM; in experiment [2], 0.63 nM.

Consider `O=C(c1cc(CN[C@@H]2C[C@H]2c2ccc(F)cc2)nc(-c2cccnc2)n1)N1CCOCC1` [Example 240], for which the IC50 in experiment [1] (HTRF, H3K4me1 substrate) stood at 770 nM; in experiment [2] it was 29.5 nM.

As to `COc1ccc(-c2c(O)cc(N3CC4CNCC4C3)nc2-c2ccc(C#N)c(F)c2)cc1F` (stereo not drawn) [Example 52, 2-fluoro-4-(3-(3-fluoro-4-methoxyphenyl)-6-(hexahydropyrrolo[3,4-c]pyrrole-2(1H)-yl)-4-hydroxypyridin-2-yl)benzonitrile hydrochloride], the IC50 in experiment [1] came to 100 nM; in experiment [2], 167 nM.

Take `Cc1ccc(-c2c(-c3ccc(C#N)c(F)c3)nc(N3CC4CC3CC4N)n3ccnc23)cc1O` (stereo not drawn) [Example 160, 4-(5-(5-amino-2-azadicyclo[2. 2.1]heptan-2-yl)-8-(3-hydroxy-4-methylphenyl)imidazolo[1,2-c]pyrimidin-7-yl)-2-fluorobenzonitrile hydrochloride]: the IC50 in experiment [1] (HTRF, H3K4me1 substrate) amounted to 1.2 ± 0.2 nM; in experiment [2] it was 0.29 nM.

On to `Cc1sc(C(=O)N2C3CCC2CC(N)C3)cc1-c1ccc(C#N)c(F)c1` (stereo not drawn) [Example 199, 4-(5-(3-amino-8-azadicyclo [3.2.1]octane-8-carbonyl)-2-methylthiophene-3-yl)-2-fluorobenzonitrile hydrochloride], for which the IC50 in experiment [1] (HTRF, H3K4me1 substrate) is 72 nM; in experiment [2], above 1000 nM.

For the compound `O=C(O)C1CCN(C(=O)c2cc(CN[C@@H]3C[C@H]3c3ccc(F)cc3)nc(-c3ccc(-n4cccn4)cc3)n2)CC1` [Example 234], the IC50 was 165 ± 8 nM in experiment [1] (HTRF, H3K4me1 substrate) and 31 ± 8 nM in experiment [2].

On to `COc1cc(N2CCC(N)CC2)nc(-c2ccc(C#N)c(F)c2)c1-c1ccc(F)c(O)c1` [Example 91, 4-(6-(4-aminopiperidin-1-yl)-3-(4-fluoro-3-hydroxyphenyl)-4-methoxypyridin-2-yl)-2-fluorobenzonitrile], for which the IC50 came to 1.1 ± 0.3 nM in experiment [1] (HTRF, H3K4me1 substrate) and 1.82 nM in experiment [2].

`N#Cc1ccc(-c2cc(C(=O)N3C4CCC3CC(N)C4)sc2-c2ccc3cn[nH]c3c2)cc1F` (stereo not drawn) [Example 203, 4-(5-(3-amino-8-azabicyclo [3.2.1]octane-8-carbonyl)-2-(1H-indazol-6-yl)thiophen-3-yl)-2-fluoro-benzonitrile]: the IC50 came out at 0.39 nM in experiment [1] (HTRF, H3K4me1 substrate) and 37.6 nM in experiment [2].

As for `COc1ccc(-c2c(O)cc(N3CCC(N)CC3)nc2-c2ccc(C#N)c(F)c2)cc1N` [Example 44], the IC50 in experiment [1] (HTRF, H3K4me1 substrate) came to 12.8 ± 4.6 nM; in experiment [2] it was 28.9 nM.

For `O=C(c1cc(CN[C@@H]2C[C@H]2c2ccc(F)cc2)nc(-c2ccc(-n3ccnn3)cc2)n1)N1CCOCC1` [Example 242], the IC50 in experiment [1] (HTRF, H3K4me1 substrate) came to 49.6 nM; in experiment [2] it was 2.83 nM.

Turning to `CNC1CCN(c2cc(O)c(-c3ccc(OC)c(F)c3)c(-c3ccc(C#N)c(F)c3)n2)CC1` [Example 55, 2-fluoro-4-(3-(3-fluoro-4-methoxyphenyl)-4-hydroxy-6-(4-(methylamino)piperidin-1-yl)pyridin-2-yl)benzonitrile], the IC50 in experiment [1] (HTRF, H3K4me1 substrate) was found to be 2.3 ± 0.7 nM; in experiment [2], 10 ± 2.9 nM.

For `CC(C)(O)C#Cc1ccc(-c2c(O)cc(N3CCC(N)CC3)nc2-c2ccc(C#N)c(F)c2)cc1F` [Example 25, 4-(6-(4-aminopiperidin-1-yl)-3-(3-fluoro-4-(3-hydroxy-3-methyl-1-alkynyl-1-yl)phenyl)-4-hydroxypyridin-2-yl)-2-fluorobenzonitrile hydrochloride], the IC50 in experiment [1] (HTRF, H3K4me1 substrate) came to 71.7 nM; in experiment [2], 868 nM.

As to `COc1ccc(-c2c(-c3ccc(C#N)c(F)c3)nc(N3CC4CCC(C3)C4N)n3ccnc23)cc1O` (stereo not drawn) [Example 161, 4-(5-(8-amino-3-azabicyclo[3. 2.1]octane-3-yl)-8-(3-hydroxy-4-methoxyphenyl)imidazolo[1,2-c]pyrimidin-7-yl)-2-fluorobenzonitrile hydrochloride], the IC50 turned out to be 3.9 ± 0.2 nM in experiment [1] (HTRF, H3K4me1 substrate) and 8.37 nM in experiment [2].

Regarding `Cc1noc2cc(-c3c(-c4ccc(C#N)c(F)c4)nc(N(C)CCCN)n4ccnc34)c(F)cc12` [Example 150], the IC50 in experiment [1] (HTRF, H3K4me1 substrate) was found to be 20.3 nM; in experiment [2], 31.2 nM.

On to `COc1ccc(C#Cc2c(O)cc(N3CCC(N)CC3)nc2-c2ccc(C#N)c(F)c2)cc1F` [Example 27], for which the IC50 was found to be 77.5 nM in experiment [1] (HTRF, H3K4me1 substrate) and 446 nM in experiment [2].

Source of the values: patent US20240216357A1 (SICHUAN HUIYU PHARMACEUTICAL CO., LTD., priority 2021, published 2024).
